Results from patent US10238670B2, “9-aminomethyl minocycline compounds and methods of use thereof in urinary tract infection (UTI) treatment” (Paratek Pharmaceuticals, Inc., priority 2016, dated 2019).
Converted amounts (≈) assume the structure as drawn. Read-outs that look alike come from different tables or passages of the source.

Experiments:
[1] = In vitro plasma protein binding (ultrafiltration), mouse plasma; format: in vitro ADME, mouse (CD-1); conditions: CD-1, 10-10,000 ng/mL, mean±SD, read-out: mean unbound protein fraction (fu) in plasma
Method: (§1) For human binding studies, plasma was obtained from the blood of three healthy male volunteers. Plasma was defrosted from storage at -20° C. before use, and pools of human plasma were used for all studies. Plasma from mouse, rat, and monkey was supplied by Harlan Laboratories Ltd. (Netherlands), Milan […], Switzerland) and Centre de Primatologie ULP (France), respectively. Protein binding was measured using an ultrafiltration method. To asses the suitability of ultrafiltration, the recovery and free permeation of [^14C]-labelled Compound 1 in PBS buffer were investigated. […] Three 1 mL aliquots per concentration were introduced into […]® devices and spun for 1 min at 2000 g (filtrate ≤500 μL). Samples of the spiked solutions, the filtrate and retentate were quantified by LSC; volumes were determined by weighing. The free permeation of the test compound in PBS was evaluated as follows: Ratio=[Cuf/Cr] with Cuf being the concentration in the ultrafiltrate (ng/mL) and Cr the concentration in the retentate (ng/mL). […] Specifically, concentrations of Compound 1 was determined by an UPLC-MS/MS method. […] Standards and quality control samples were prepared on the day of analysis by adding a 20 μL aliquot of an appropriate standard or QC spiking solution in methanol. A 25 μL aliquot of the internal standard (at 200 ng/mL in methanol) was added to each well except blanks. […] Samples were processed using protein precipitation. A 0.5 mL aliquot of an acetonitrile/ethanol/acetic acid mixture (90:10:0.1, v:v:v) was added to each sample; samples were mixed using a vortex mixer for 10 minutes, and centrifuged 3800 rpm (approximately 2500×g) for 10 min at 10° C. […] The ions monitored for Compound 1 was the parent [M+H]^+ ion at m/z 557.3.0; the product ions at m/z 453.4. […] The quantification was performed using Analyst software and Watson LIMS version 7.2.0.01. Concentrations in QC and study samples were calculated from the resulting peak area ratios and interpolation from the regression equations of the respective calibration curves. The lower limit of quantitation was 5.0 ng/mL for Compound 1.

plasma proteins = test: as above; format: in vitro ADME, mouse (CD-1); conditions: 10-10,000 ng/mL
Method: as §1

E. coli ESBL− = test: In vitro MIC, 2010 surveillance isolates; format: cell-based, Escherichia coli; conditions: for Cumulative % Inhibition at MIC: N=3376
Citrobacter spp. = test: In vitro MIC, 2010 surveillance isolates; format: cell-based; conditions: N=253
P. aeruginosa = test: In vitro MIC (Data from CMI 07); format: cell-based; conditions: N=22
E. coli = test: In vitro activity in urine relative to standard media; format: cell-based

Q: With `CN(C)c1cc(CNCC(C)(C)C)c(O)c2c1C[C@H]1C[C@H]3[C@H](N(C)C)C(O)=C(C(N)=O)C(=O)[C@@]3(O)C(O)=C1C2=O` [Compound 1, 9-[(2,2-dimethyl-propylamino)-methyl]-minocycline] as the compound, how does the fraction unbound [1] read?
A: The fraction unbound was 0.847 ± 0.0531.

Q: And the “Mean (SD) Bound Fraction” value (plasma proteins)?
A: The value was 15.3 (5.31) %.

Q: What about the “mean unbound protein fraction (fu) in plasma” value (plasma proteins; mean±SD) of the same compound?
A: Its value is 84.7±5.3%.

Q: And the MIC90 (E. coli ESBL−; Asia/Pac, N=282)?
A: The MIC90 was 2 µg/mL (≈ 3.59 µM).

Q: What about the MIC90 (E. coli ESBL−; Escherichia coli, ESBL-negative E. coli, read-out: MIC90) of the same compound?
A: The MIC90 was 2 µg/mL (≈ 3.59 µM).

Q: And the MIC90 (E. coli ESBL−; Europe, N=1533)?
A: The MIC90 was 2 µg/mL (≈ 3.59 µM).

Q: What about the MIC90 (E. coli ESBL−; L. Amer, N=389) of the same compound?
A: Its MIC90 is 2 µg/mL (≈ 3.59 µM).

Q: And the “Cumulative % Inhibition at MIC” value (E. coli ESBL−; MIC 1 μg/ml)?
A: Its value is 84.2%.

Q: What about the “Cumulative % Inhibition at MIC” value (E. coli ESBL−; MIC 2 μg/ml) of the same compound?
A: The value was 95.9%.

Q: What about the “Cumulative % Inhibition at MIC” value (E. coli ESBL−; MIC 4 μg/ml) of the same compound?
A: Its value is 99.3%.

Q: And the “Cumulative % Inhibition at MIC” value (E. coli ESBL−; MIC 8 μg/ml)?
A: Its value is 99.9%.

Q: What about the “Cumulative % Inhibition at MIC” value (E. coli ESBL−; MIC 16 μg/ml) of the same compound?
A: The value was 100%.

Q: What about the “Cumulative % Inhibition at MIC” value (E. coli ESBL−; MIC ≤0.5 μg/ml, listed as head image P00005) of the same compound?
A: The value was 54.2%.

Q: What about the “Cumulative % Inhibition at MIC” value (E. coli ESBL−; MIC ≥32 μg/ml) of the same compound?
A: Its value is 100%.

Q: What about the MIC90 (E. coli ESBL−; N America, N=1172) of the same compound?
A: Its MIC90 is 2 µg/mL (≈ 3.59 µM).

Q: And the “Cumulative % Inhibition at MIC” value (Citrobacter spp.; MIC 1 μg/ml)?
A: The value was 44.7%.

Q: What about the “Cumulative % Inhibition at MIC” value (Citrobacter spp.; MIC 2 μg/ml) of the same compound?
A: The value was 79.1%.

Q: And the “Cumulative % Inhibition at MIC” value (Citrobacter spp.; MIC 4 μg/ml)?
A: The value was 93.3%.

Q: And the “Cumulative % Inhibition at MIC” value (Citrobacter spp.; MIC 8 μg/ml)?
A: Its value is 97.6%.

Q: What about the “Cumulative % Inhibition at MIC” value (Citrobacter spp.; MIC 16 μg/ml) of the same compound?
A: Its value is 100%.

Q: What about the “Cumulative % Inhibition at MIC” value (Citrobacter spp.; MIC ≤0.5 μg/ml, listed as head image P00016) of the same compound?
A: Its value is 14.6%.

Q: What about the “Cumulative % Inhibition at MIC” value (P. aeruginosa; MIC 1 μg/ml) of the same compound?
A: The value was 0%.

Q: What about the “Cumulative % Inhibition at MIC” value (P. aeruginosa; MIC 2 μg/ml) of the same compound?
A: The value was 0%.

Q: What about the “Cumulative % Inhibition at MIC” value (P. aeruginosa; MIC 4 μg/ml) of the same compound?
A: Its value is 0%.

Q: And the “Cumulative % Inhibition at MIC” value (P. aeruginosa; MIC 8 μg/ml)?
A: The value was 0%.

Q: And the “Cumulative % Inhibition at MIC” value (P. aeruginosa; MIC 16 μg/ml)?
A: The value was 9.1%.

Q: What about the “Cumulative % Inhibition at MIC” value (P. aeruginosa; MIC ≤0.5 μg/ml, Data from CMI 07) of the same compound?
A: Its value is 0%.

Q: What about the “Cumulative % Inhibition at MIC” value (P. aeruginosa; MIC ≥32 μg/ml) of the same compound?
A: Its value is 100%.

Q: What about the “activity in urine relative to standard media” value (E. coli) of the same compound?
A: Its value is “stable”.

Q: Which results are given for `CN(C)c1cc(NC(=O)CNC(C)(C)C)c(O)c2c1C[C@H]1C[C@H]3[C@H](N(C)C)C(O)=C(C(N)=O)C(=O)[C@@]3(O)C(O)=C1C2=O` [Tigecycline]?
A: % R (resistance) (E. coli ESBL−; Asia/Pac, Eucast breakpoints): 0%; MIC90 (E. coli ESBL−; Asia/Pac, N=282): 0.25 µg/mL (≈ 0.427 µM); % R (resistance) (E. coli ESBL−; Europe, Eucast breakpoints): 0%; MIC90 (E. coli ESBL−; Europe, N=1533): 0.25 µg/mL (≈ 0.427 µM); % R (resistance) (E. coli ESBL−; L. Amer, CLSI breakpoints): 0%; MIC90 (E. coli ESBL−; L. Amer, N=389): 0.25 µg/mL (≈ 0.427 µM); % R (resistance) (E. coli ESBL−; N America, CLSI breakpoints): 0%; MIC90 (E. coli ESBL−; N America, N=1172): 0.25 µg/mL (≈ 0.427 µM)
